{
  "source": "patent US20170333391A1",
  "about": "“METHOD FOR DELAYING THE ONSET OF PULMONARY FIBROSIS OR TREATING PULMONARY FIBROSIS” (EVERFRONT BIOTECH INC., priority 2016, published 2017)",
  "key": {"IL-6": {"tested_on": "IL-6", "test": "IL-6 mRNA in mouse pulmonary tissue, RT-PCR", "type": "in vivo, mice", "details": "Bleomycin sulfate, normal control = 1, oil group = 3.26", "excerpt": "24 C57B/L6 mice (age: four weeks) were separated into four groups (6 mice in each group). […]\nThen, for another portion of ground samples of each group, the total RNAs were extracted using an RNeasy Mini Kit. The QuantiTect Reverse Transcription Kit was used to conduct reverse transcription on the total RNA to obtain the cDNA. […]"}, "TGF-β protein": {"tested_on": "TGF-β protein", "test": "TGF-β protein expression in transfected NHLF (pcDNA3.1 empty vector or pcDNA3.1-SOX2), western blotting (2-3)", "type": "cell-based, human", "details": "TGF-β1 5 ng/ml 12 h", "experimental": "(§1) The pcDNA3.1 empty vector and the pcDNA3.1-SOX2 plasmid (i.e., pcDNA3.1 vector containing SOX2 gene) were respectively transfected into Normal Human lung fibroblasts (NHLF) by the Fugene HD cell transfection reagent. The cells were screened to obtain NHLFs containing the pcDNA3.1 empty vector or the pcDNA3.1-SOX2 plasmid.\n(§2) NHLFs containing the pcDNA3.1 empty vector were then seeded into 6 cm culture dishes at a density of 2×10^5 cells/dish, comprising a control group and three experimental groups (4 dishes in total). The cells were cultured until the next day, and then the mediums were removed. Each group was respectively treated under the following conditions to conduct follow-up experiments: • (1) Control group I: cells were cultured in a FGM-2 medium containing 1% serum for 36 hours; • (2) Group A: cells were cultured in a FGM-2 medium containing 1% serum and TGF-β1 (5 ng/ml) for 36 hours; • (3) Group B: cells were firstly cultured in a FGM-2 medium containing 1% serum and TGF-β1 (5 ng/ml) for 12 hours, and then compound (1) was added into the medium to provide a final concentration of 15 μg/ml; thereafter, the cells were cultured for another 24 hours; and • (4) Group C: cells were firstly cultured in a FGM-2 medium containing 1% serum and TGF-β1 (5 ng/ml) for 12 hours, and then compound (1) was added into the medium to provide a final concentration of 30 μg/ml; thereafter, the cells were cultured for another 24 hours.\n(§3) In another aspect, NHLFs containing the pcDNA3.1-SOX2 plasmid were seeded into the 6 cm culture dishes at a density of 2×10^5 cells/dish, comprising a control group and three experimental groups (4 dishes in total). The cells were cultured until the next day, and then the mediums were removed. Each group was respectively treated under the following conditions to conduct follow-up experiments: • (1) Control group II: cells were cultured in a FGM-2 medium containing 1% serum for 36 hours; • (2) Group D: cells were cultured in a FGM-2 medium containing 1% serum and TGF-β1 (5 ng/ml) for 36 hours; • (3) Group E: cells were firstly cultured in a FGM-2 medium containing 1% serum and TGF-β1 (5 ng/ml) for 12 hours, and then the compound (1) was added into the medium to provide a final concentration of 15 μg/ml; thereafter, the cells were cultured for another 24 hours; and • (4) Group F: cells were firstly cultured in a FGM-2 medium containing 1% serum and TGF-β1 (5 ng/ml) for 12 hours, and then the compound (1) was added into the medium to provide a final concentration of 30 μg/ml; thereafter, the cells were cultured for another 24 hours.\n(§4) Thereafter, the proteins in the cells of each group were extracted, and the expressions of Sox2 protein, TGF-β protein and type I collagen in the NHLF cells of each group were measured with western blotting. […]"}, "[1]": {"tested_on": "C57B/L6 mice injected with Bleomycin sulfate (inducer of pulmonary fibrosis)", "test": "Pulmonary function by unrestrained whole body plethysmography in Bleomycin sulfate mice", "type": "in vivo", "details": "compared to oil group; for accumulated volume (AV): p<0.01; for expiratory time (Te) / relaxation time (RT): p<0.05", "experimental": "24 C57B/L6 mice (age: four weeks) were separated into four groups (6 mice in each group). Each group was respectively treated under the following conditions to conduct follow-up experiments: • (1) Control group (mice without pulmonary fibrosis; i.e., normal mice): 50 μl of PBS was administrated to each mouse by intratracheal injection, and then the mice were fed for 30 days; • (2) Oil group: 0.6 U/50 μl of Bleomycin sulfate (dissolved in PBS) was administrated to each mouse by intratracheal injection, and then 100 μl of olive oil was orally administrated to each mouse every day for 30 days; • (3) Low-dose group: 0.6 U/50 μl of Bleomycin sulfate (dissolved in PBS) was administrated to each mouse by intratracheal injection, and then compound (1) (10 mg/kg-body weight, prepared with olive oil to provide a final volume of 100 μl) was orally administrated to each mouse every day for 30 days; and • (4) High-dose group: 0.6 U/50 μl of Bleomycin sulfate (dissolved in PBS) was administrated to each mouse by intratracheal injection, and then compound (1) (50 mg/kg-body weight, prepared with olive oil to provide a final volume of 100 μl) was orally administrated to each mouse every day for 30 days.\nIn this experiment, the pulmonary functions of the mice from each group of Example 5 were evaluated with Unrestrained Whole Body Plethysmography (WBP). The inspiratory and expiratory flow rates of mice were calculated by measuring changes in the air inside and outside of a specific chamber, and respiratory parameters can be obtained therefrom. The respiratory parameters comprise the peak inspiratory flow (PIF) (i.e., the maximal volume being inspired in a period of time), peak expiratory flow (PEF) (i.e., the maximal volume being expired in a period of time), inspiratory time (Ti) (i.e., the average time of inspiration in a period of time), expiratory time (Te) (i.e., the average time of expiration in a period of time), respiratory rate (RR) (i.e., the numbers of breath per minute), accumulated volume (AV) (i.e., the average volume of air being breathed per minute), tidal volume (TV) (i.e., the average volume of air being expired per time), relaxation time (RT) (i.e., the average time needed for raising the pressure of air hatch to 40% of the maximal value), etc."}, "type I collagen": {"tested_on": "type I collagen", "test": "Type I collagen expression in transfected NHLF (pcDNA3.1 empty vector or pcDNA3.1-SOX2), western blotting (2-3)", "type": "cell-based, human", "details": "TGF-β1 5 ng/ml 12 h", "experimental": "as §1, §2, §3, §4"}, "[2]": {"details": "High-dose group, compound (1) 50 mg/kg orally daily 30 days"}, "[3]": {"details": "Low-dose group, compound (1) 10 mg/kg orally daily 30 days"}},
  "data": [
    {"smiles": "CCCC=C1OC(=O)c2ccccc21", "note": "[compound (1)]", "values": [
      {"measurement": "Relative expression level (fold) IL-6", "setting": "IL-6; High-dose group: mRNA in pulmonary tissue, compound (1) 50 mg/kg-body weight orally every day for 30 days", "value": 0.53, "unit": "fold"},
      {"measurement": "Relative expression level (fold) IL-6", "setting": "IL-6; Low-dose group: mRNA in pulmonary tissue, compound (1) 10 mg/kg-body weight orally every day for 30 days", "value": 1.36, "unit": "fold"},
      {"measurement": "Relative expression level (fold) TGF-β protein", "setting": "TGF-β protein; Group B: NHLF with pcDNA3.1 empty vector, then compound (1) 15 μg/ml 24 h, control group I = 1, TGF-β1-only group A = 0.84", "value": 0.89, "unit": "fold"},
      {"measurement": "Relative expression level (fold) TGF-β protein", "setting": "TGF-β protein; Group C: NHLF with pcDNA3.1 empty vector, then compound (1) 30 μg/ml 24 h, control group I = 1, TGF-β1-only group A = 0.84", "value": 0.69, "unit": "fold"},
      {"measurement": "Relative expression level (fold) TGF-β protein", "setting": "TGF-β protein; Group E: NHLF with pcDNA3.1-SOX2 plasmid, then compound (1) 15 μg/ml 24 h, control group II = 1, TGF-β1-only group D = 0.86", "value": 0.83, "unit": "fold"},
      {"measurement": "Relative expression level (fold) TGF-β protein", "setting": "TGF-β protein; Group F: NHLF with pcDNA3.1-SOX2 plasmid, then compound (1) 30 μg/ml 24 h, control group II = 1, TGF-β1-only group D = 0.86", "value": 0.71, "unit": "fold"},
      {"measurement": "other respiratory parameters", "setting": "[1]; [2]", "value": "closer to the control group"},
      {"measurement": "accumulated volume (AV)", "setting": "[1]; [2]", "value": "significantly increased"},
      {"measurement": "expiratory time (Te)", "setting": "[1]; [2]", "value": "significantly decreased"},
      {"measurement": "relaxation time (RT)", "setting": "[1]; [2]", "value": "significantly decreased"},
      {"measurement": "other respiratory parameters", "setting": "[1]; [3]", "value": "closer to the control group"},
      {"measurement": "accumulated volume (AV)", "setting": "[1]; [3]", "value": "significantly increased"},
      {"measurement": "expiratory time (Te)", "setting": "[1]; [3]", "value": "significantly decreased"},
      {"measurement": "relaxation time (RT)", "setting": "[1]; [3]", "value": "significantly decreased"},
      {"measurement": "Relative expression level (fold) Type I collagen", "setting": "type I collagen; Group B: NHLF with pcDNA3.1 empty vector, then compound (1) 15 μg/ml 24 h, control group I = 1, TGF-β1-only group A = 5.83", "value": 3.74, "unit": "fold"},
      {"measurement": "Relative expression level (fold) Type I collagen", "setting": "type I collagen; Group C: NHLF with pcDNA3.1 empty vector, then compound (1) 30 μg/ml 24 h, control group I = 1, TGF-β1-only group A = 5.83", "value": 0.88, "unit": "fold"},
      {"measurement": "Relative expression level (fold) Type I collagen", "setting": "type I collagen; Group E: NHLF with pcDNA3.1-SOX2 plasmid, then compound (1) 15 μg/ml 24 h, control group II = 1, TGF-β1-only group D = 1.57", "value": 1.30, "unit": "fold"},
      {"measurement": "Relative expression level (fold) Type I collagen", "setting": "type I collagen; Group F: NHLF with pcDNA3.1-SOX2 plasmid, then compound (1) 30 μg/ml 24 h, control group II = 1, TGF-β1-only group D = 1.57", "value": 1.29, "unit": "fold"}
    ]}
  ]
}
